{
  "source": "patent US20030232102A1",
  "about": "“Total glycosides of paeony, method to prepare the same and uses thereof” (priority 2001, published 2003)",
  "tested_on": "patients with rheumatoid arthritis",
  "test": "Phase II clinical study: laboratory tests and immune system perimeters",
  "type": "in vivo, human",
  "design": "ESR / CRP / RF / Ig A / Ig G / Laboratory blood tests: Hg / Laboratory blood tests: WBC / Laboratory blood tests: BP / Laboratory blood tests: Cr / Laboratory blood tests: BUN: unit not given here",
  "settings": "for Laboratory blood tests: Hg / Laboratory blood tests: WBC / Laboratory blood tests: BP / Laboratory blood tests: BUN / Laboratory blood tests: Cr / Laboratory blood tests: GPT: overall group",
  "from_the_text": "It was a multiple-centered, randomized, parallel, positive controlled Phrase II clinical study.\n10) Routine blood and urine exam: Hemoglobin, platelet count, biochemical serum test and routine urine test\n11) Blood Sedimentation (Norm. M: 15 mm/hr F: 20 mm/hr)\n12) Serum Rheumatoid Factor (Method: Latex Agglutination Test, LAT): The maximum titer value were required for positive reaction patients. All centers use the same standard agents in one product batch.\n13) C-reactive protein (quantitative method): All centers use the same standard agents in one product batch.",
  "key": {"[1]": {"settings": "4 weeks (row order of Table 65)"}, "[2]": {"settings": "8 weeks (row order of Table 65)"}, "[3]": {"settings": "12 weeks (row order of Table 65)"}, "[4]": {"settings": "24 weeks (row order of Table 65)"}, "[5]": {"settings": "4 weeks (row order of Table 67)"}, "[6]": {"settings": "8 weeks (row order of Table 67)"}, "[7]": {"settings": "12 weeks (row order of Table 67)"}, "[8]": {"settings": "24 weeks (row order of Table 67)"}, "[9]": {"settings": "period of treatment 0 (row order of Table 67)"}, "[10]": {"settings": "period of treatment 0 (row order of Table 65)"}},
  "data": [
    {"smiles": "CN(Cc1cnc2nc(N)nc(N)c2n1)c1ccc(C(=O)N[C@@H](CCC(=O)O)C(=O)O)cc1", "note": "[MTX, Methotrexate]", "values": [
      {"measurement": "CRP", "setting": "4 weeks", "result": "27.97 ± 21.12"},
      {"measurement": "ESR", "setting": "4 weeks", "result": "42.11 ± 38.68"},
      {"measurement": "Ig A", "setting": "[1]", "result": "3.64 ± 3.54"},
      {"measurement": "Ig G", "setting": "[1]", "result": "17.40 ± 6.59"},
      {"measurement": "RF", "setting": "[1]", "result": "1.87 ± 0.62"},
      {"measurement": "CRP", "setting": "8 weeks", "result": "25.72 ± 19.42"},
      {"measurement": "ESR", "setting": "8 weeks", "result": "44.92 ± 78.36"},
      {"measurement": "Ig A", "setting": "[2]", "result": "3.98 ± 3.56"},
      {"measurement": "Ig G", "setting": "[2]", "result": "17.62 ± 6.37"},
      {"measurement": "Ig M", "setting": "[2]", "result": "2.76 ± 2.24"},
      {"measurement": "RF", "setting": "[2]", "result": "1.59 ± 0.61"},
      {"measurement": "CRP", "setting": "12 weeks", "result": "22.31 ± 18.91"},
      {"measurement": "ESR", "setting": "12 weeks", "result": "29.96 ± 20.48"},
      {"measurement": "Ig A", "setting": "[3]", "result": "3.39 ± 3.15"},
      {"measurement": "Ig G", "setting": "[3]", "result": "16.47 ± 5.92"},
      {"measurement": "RF", "setting": "[3]", "result": "1.72 ± 0.56"},
      {"measurement": "CRP", "setting": "24 weeks", "result": "27.12 ± 22.39"},
      {"measurement": "ESR", "setting": "24 weeks", "result": "28.66 ± 20.96"},
      {"measurement": "Ig A", "setting": "[4]", "result": "2.35 ± 1.55"},
      {"measurement": "Ig G", "setting": "[4]", "result": "15.26 ± 6.37"},
      {"measurement": "Ig M", "setting": "[4]", "result": "1.57 ± 0.79"},
      {"measurement": "RF", "setting": "[4]", "result": "1.74 ± 0.63"},
      {"measurement": "Laboratory blood tests: Hg", "setting": "4 weeks", "result": "10.96 ± 3.65"},
      {"measurement": "Laboratory blood tests: WBC", "setting": "4 weeks", "result": "7.47 ± 2.09"},
      {"measurement": "Laboratory blood tests: BP", "setting": "[5]", "result": "94.28 ± 31.42"},
      {"measurement": "Laboratory blood tests: BUN", "setting": "[5]", "result": "3.32 ± 1.11"},
      {"measurement": "Laboratory blood tests: Cr", "setting": "[5]", "result": "82.82 ± 27.64"},
      {"measurement": "Laboratory blood tests: GPT", "setting": "[5]", "result": "Norm."},
      {"measurement": "Laboratory blood tests: Hg", "setting": "8 weeks", "result": "9.26 ± 3.09"},
      {"measurement": "Laboratory blood tests: WBC", "setting": "8 weeks", "result": "8.47 ± 2.82"},
      {"measurement": "Laboratory blood tests: BP", "setting": "[6]", "result": "108.73 ± 36.21"},
      {"measurement": "Laboratory blood tests: BUN", "setting": "[6]", "result": "1.97 ± 0.65"},
      {"measurement": "Laboratory blood tests: Cr", "setting": "[6]", "result": "98.89 ± 32.93"},
      {"measurement": "Laboratory blood tests: GPT", "setting": "[6]", "result": "Norm."},
      {"measurement": "Laboratory blood tests: Hg", "setting": "12 weeks", "result": "9.24 ± 2.98"},
      {"measurement": "Laboratory blood tests: WBC", "setting": "12 weeks", "result": "8.42 ± 2.57"},
      {"measurement": "Laboratory blood tests: BP", "setting": "[7]", "result": "110.66 ± 37.48"},
      {"measurement": "Laboratory blood tests: BUN", "setting": "[7]", "result": "1.82 ± 0.47"},
      {"measurement": "Laboratory blood tests: Cr", "setting": "[7]", "result": "102.03 ± 36.86"},
      {"measurement": "Laboratory blood tests: GPT", "setting": "[7]", "result": "Norm."},
      {"measurement": "Laboratory blood tests: Hg", "setting": "24 weeks", "result": "10.78 ± 3.10"},
      {"measurement": "Laboratory blood tests: WBC", "setting": "24 weeks", "result": "7.28 ± 2.67"},
      {"measurement": "Laboratory blood tests: BP", "setting": "[8]", "result": "168.48 ± 30.78"},
      {"measurement": "Laboratory blood tests: BUN", "setting": "[8]", "result": "3.38 ± 1.01"},
      {"measurement": "Laboratory blood tests: Cr", "setting": "[8]", "result": "78.66 ± 26.42"},
      {"measurement": "Laboratory blood tests: GPT", "setting": "[8]", "result": "Norm."},
      {"measurement": "Laboratory blood tests: Hg", "setting": "period of treatment 0", "result": "11.28 ± 3.72"},
      {"measurement": "Laboratory blood tests: WBC", "setting": "period of treatment 0", "result": "7.96 ± 2.61"},
      {"measurement": "Laboratory blood tests: BP", "setting": "[9]", "result": "98.97 ± 32.86"},
      {"measurement": "Laboratory blood tests: BUN", "setting": "[9]", "result": "3.96 ± 1.32"},
      {"measurement": "Laboratory blood tests: Cr", "setting": "[9]", "result": "74.86 ± 28.28"},
      {"measurement": "Laboratory blood tests: GPT", "setting": "[9]", "result": "Norm."},
      {"measurement": "CRP", "setting": "period of treatment 0", "result": "32.01 ± 22.75"},
      {"measurement": "ESR", "setting": "period of treatment 0", "result": "47.11 ± 26.19"},
      {"measurement": "Ig A", "setting": "[10]", "result": "3.62 ± 3.42"},
      {"measurement": "Ig G", "setting": "[10]", "result": "18.13 ± 7.12"},
      {"measurement": "RF", "setting": "[10]", "result": "1.93 ± 0.61"}
    ]}
  ]
}
